Laboratory results taken from patent US20230129438A1, “IMMUNOMODULATING IMINE-OXAZOLINE AZALIDES” (Zoetis Services LLC, priority 2020, published 2023).
Entries after “also recorded” stand apart in the source; their conditions may differ. Where two headings read alike, the source gives them in different places.

Assays:
P. multocida 46572 = assay: In vivo mouse lung infection challenge model (murine efficacy model); conditions: P. multocida infection in mice
LPO = LPO (Bos taurus, UniProt P80025); assay: Drug binding partner identification (NPOT/SPR), LPO; design: species or system bovine; conditions: tissue Trachea, PBMCs, PMNs
Description: (§1) To further characterize the direct activity of the compounds of the invention, experiments to identify the drug's direct binding host partners(s) were performed with the aim of identifying the potential biological targets. Bovine primary cells (peripheral blood mononuclear cells [PBMCs] and polymorphonuclear cells [PMN/neutrophils]) and tissue (trachea, lung) protein homogenates were mixed with M9 and the macrolide, gamithromicin as a comparator. Tissue interactions were allowed to form using a heterogeneous assembly method (nematic protein organization technique, NPOT; Inoviem Scientific); and traditional western blots to identify native-structure proteins bound to the compound. Mass spectrometry analysis identified eight proteins involved in the interaction with M9 as compared to gamithromycin. The antibacterial macrolide gamithromycin was used as a comparator to differentiate specific binding to M9. These proteins were considered to be either direct binding partners of the drug or closely involved in the drug:target interaction (Table 6).
(§2) In order to add further clarity to binding partner identification, surface plasma resonance (SPR) technology was used. […]
(§3) KD is the equilibrium dissociation constant that was used to present the drug/target affinity. The identified targets associated with drug were measured by surface plasmon resonance (SPR) to define the KD.

[1] = test system: bovine respiratory disease (BRD); assay: Natural bovine respiratory disease study; assay type: in vivo, beef calves
Description: The primary clinical endpoint for efficacy was treatment failure/success over a 14-day observation period. Clinically normal beef calves (150-200 kg) at moderate risk for BRD were dosed on arrival to the feedlot. Animals (N=114/group) received saline (T01), 5 mg/kg M9 (T02) or 10 mg/kg M9 (T03); or Zactran (T04). […] Bacterial isolates were collected at necropsy and MICs were evaluated (Table 4).

IL-1β = assay: Bovine whole blood assay, IL-1β; assay type: cell-based; conditions: drug concentration giving overstimulation of IL-1β over LPS (cellular toxicity signal)
Description: (protected from light) for 30 minutes.

LCN2 = target: T1, LCN2 (Bos taurus, UniProt A0AAA9TIZ6); assay: Surface plasmon resonance (SPR) drug/target binding, LCN2; design: species or system bovine; conditions: read-out: Interaction KD
T1 sequence (A0AAA9TIZ6 24-200): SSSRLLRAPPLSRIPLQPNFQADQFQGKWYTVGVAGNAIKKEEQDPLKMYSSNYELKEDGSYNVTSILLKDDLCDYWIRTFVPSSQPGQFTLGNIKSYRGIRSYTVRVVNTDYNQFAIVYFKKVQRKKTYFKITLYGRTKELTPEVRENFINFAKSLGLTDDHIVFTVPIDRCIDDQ
Description: as §1, §2, §3

TLR4 = target: T2, TLR4 (Bos taurus, UniProt Q9GL65); assay: Drug binding partner identification (NPOT/SPR), TLR4; design: species or system bovine; conditions: tissue PBMCs, Trachea
T2 sequence (Q9GL65 24-841): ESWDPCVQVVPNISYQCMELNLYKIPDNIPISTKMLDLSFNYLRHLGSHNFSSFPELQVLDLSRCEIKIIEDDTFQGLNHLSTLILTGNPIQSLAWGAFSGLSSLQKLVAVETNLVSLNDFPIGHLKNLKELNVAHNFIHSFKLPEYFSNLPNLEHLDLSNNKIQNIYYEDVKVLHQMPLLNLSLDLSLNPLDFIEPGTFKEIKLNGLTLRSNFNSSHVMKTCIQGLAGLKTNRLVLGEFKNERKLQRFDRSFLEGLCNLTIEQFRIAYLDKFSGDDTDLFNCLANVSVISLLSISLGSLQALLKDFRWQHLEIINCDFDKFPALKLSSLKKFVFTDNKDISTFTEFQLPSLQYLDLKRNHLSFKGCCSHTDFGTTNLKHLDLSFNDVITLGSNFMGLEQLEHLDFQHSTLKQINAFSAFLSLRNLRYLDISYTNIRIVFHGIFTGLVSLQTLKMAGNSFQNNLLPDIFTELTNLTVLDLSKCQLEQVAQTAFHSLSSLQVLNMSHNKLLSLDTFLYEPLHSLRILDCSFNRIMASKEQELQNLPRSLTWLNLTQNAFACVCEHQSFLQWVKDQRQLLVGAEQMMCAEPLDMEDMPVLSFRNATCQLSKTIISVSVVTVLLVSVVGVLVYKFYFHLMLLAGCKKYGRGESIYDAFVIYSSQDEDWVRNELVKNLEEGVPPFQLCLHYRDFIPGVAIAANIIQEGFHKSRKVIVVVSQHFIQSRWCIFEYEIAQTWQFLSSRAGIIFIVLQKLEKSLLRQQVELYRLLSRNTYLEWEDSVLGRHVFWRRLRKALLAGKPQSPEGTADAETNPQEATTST
Description: as §1, §2, §3

[2] = Separate PK study, plasma concentration; conditions: following a 10 mg/kg dose
[3] = Separate study of M9 versus saline control (lung lesions, mortality); assay type: in vivo; conditions: 10 mg/kg
NLRX1 = NLRX1 (Bos taurus, UniProt A7MB19); assay: Drug binding partner identification (NPOT/SPR), NLRX1; design: species or system bovine; conditions: tissue PBMCs
Description: as §1, §2, §3

[4] = test system: M. haemolytica (strain: OSU-012103-BHI); assay: Bovine M. haemolytica intratracheal lung challenge model; assay type: in vivo
SLAMF9 = SLAMF9 (Bos taurus, UniProt E1BNF9); assay: Surface plasmon resonance (SPR) drug/target binding, SLAMF9; design: species or system bovine; conditions: read-out: Interaction KD
Description: as §1, §2, §3

P. multocida = assay: Murine P. multocida intranasal challenge study with lung tissue RNA sequence analysis; assay type: in vivo, mouse; conditions: 32 mg/kg subcutaneous 18 hours after challenge (T03); placebo 0%
Description: In one murine P. multocida intranasal challenge study, mice were administered tulathromycin (16 mg/kg; T02), M9 (32 mg/kg; T03), or ceftiofur (9 mg/kg; T04) by subcutaneous injection 18 hours after bacterial challenge (5×10^3 CFU/mouse) for lung tissue RNA sequence analysis. Survival at Day 7 was about 80%, 50%, and 90% for T02, T03, and T04, respectively, compared to placebo at 0%. Differential gene expression from total lung tissue RNA sequence analysis indicated at least 226 unique genes were up or down regulated (with significance) for T03. Output from ingenuity pathway analysis of these unique genes predicted major upstream regulators of the involved pathways. Data was analyzed based on the number of genes being modulated in the same direction that were associated with a given upstream regulator. An activation z-score of 2 or greater is considered significant and the direction change is indicated by + (activated) or − (inhibited). The top 5 pathways included: IL-9 signaling, glucocorticoid receptor signaling, prolactin signaling, JAK STAT signaling, and IL-17 signaling. The top 6 upstream regulators (activation z-score) included: lipopolysaccharide (−6.725), TNF (−4.669), IFNγ (−5.759), IL-1β (−5.947), STAT1 (−2.787), and poly rI:rC-RNA (−5.289). Even though this study was run in the murine model, the top upstream regulators identified as being modulated by M9 include an almost ubiquitous overlap with the pathways identified in the natural disease study as being key mediators in BRD, and therefore is modulating highly relevant pathways in BRD pathobiology.

SLAMF9, sequence (E1BNF9 1-289): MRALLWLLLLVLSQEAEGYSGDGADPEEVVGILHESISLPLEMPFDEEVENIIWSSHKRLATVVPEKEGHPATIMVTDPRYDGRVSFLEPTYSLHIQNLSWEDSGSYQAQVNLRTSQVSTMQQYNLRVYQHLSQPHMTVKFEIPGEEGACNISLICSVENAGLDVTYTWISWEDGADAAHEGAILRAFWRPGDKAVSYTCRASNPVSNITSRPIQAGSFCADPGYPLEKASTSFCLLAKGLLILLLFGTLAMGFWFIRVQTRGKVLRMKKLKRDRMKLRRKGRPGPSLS
NLRX1, sequence (A7MB19 1-973): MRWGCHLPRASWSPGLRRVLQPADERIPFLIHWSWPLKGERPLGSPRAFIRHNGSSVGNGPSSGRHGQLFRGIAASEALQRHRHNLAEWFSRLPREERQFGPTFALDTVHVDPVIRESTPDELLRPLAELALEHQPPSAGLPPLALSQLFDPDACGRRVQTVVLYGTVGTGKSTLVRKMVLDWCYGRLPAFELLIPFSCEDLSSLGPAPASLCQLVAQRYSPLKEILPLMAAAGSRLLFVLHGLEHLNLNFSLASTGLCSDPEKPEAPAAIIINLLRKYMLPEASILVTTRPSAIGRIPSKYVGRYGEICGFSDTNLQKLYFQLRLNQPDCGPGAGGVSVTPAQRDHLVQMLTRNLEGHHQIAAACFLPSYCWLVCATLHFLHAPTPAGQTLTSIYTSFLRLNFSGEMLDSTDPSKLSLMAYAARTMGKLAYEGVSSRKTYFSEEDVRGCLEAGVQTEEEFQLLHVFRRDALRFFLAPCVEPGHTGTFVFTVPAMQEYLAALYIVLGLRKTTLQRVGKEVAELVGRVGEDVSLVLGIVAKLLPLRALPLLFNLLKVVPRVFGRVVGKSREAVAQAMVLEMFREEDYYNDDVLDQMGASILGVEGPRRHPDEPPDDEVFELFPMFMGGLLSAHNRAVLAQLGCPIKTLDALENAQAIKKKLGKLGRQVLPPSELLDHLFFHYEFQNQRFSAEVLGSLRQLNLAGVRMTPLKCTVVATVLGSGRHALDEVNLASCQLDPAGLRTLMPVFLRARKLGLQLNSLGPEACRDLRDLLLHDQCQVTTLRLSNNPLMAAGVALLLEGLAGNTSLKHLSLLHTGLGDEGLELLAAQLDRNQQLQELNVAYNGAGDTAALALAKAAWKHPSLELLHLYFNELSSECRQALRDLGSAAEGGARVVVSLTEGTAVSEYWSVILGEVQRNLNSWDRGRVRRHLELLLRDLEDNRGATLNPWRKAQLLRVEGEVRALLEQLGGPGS

CCCNC[C@]1(O)[C@H](C)O[C@@H](O[C@H]2[C@H](C)[C@@H](O[C@@H]3O[C@H](C)C[C@H](NC)[C@H]3O)[C@](C)(O)C[C@@H](C)CN[C@H](C)[C@@H](O)[C@](C)(O)[C@@H](CC)OC(=O)[C@@H]2C)C[C@@]1(C)OC [Example M9, (2R,3S,4R,5R,8R,10R,11R,12S,13S,14R)-2-ethyl-3,4,10-trihydroxy-13-(((2R,4R,5S,6S)-5-hydroxy-4-methoxy-4,6-dimethyl-5-((propylamino)methyl)-tetrahydro-2H-pyran-2-yl)oxy)-11-(((2S,3R,4S,6R)-3-hydroxy-6-methyl-4-(methylamino)tetrahydro-2H-pyran-2-yl)oxy)-3,5,8,10,12,14-hexamethyl-1-oxa-6-azacyclopentadecan-15-one]
clinical efficacy, in words (P. multocida 46572): clinically efficacious | Interaction (LPO): Indirect | Percent failure (treatment failure) ([1]; 10 mg/kg (T03), dosed on arrival, 14-day observation, saline 43%): 8.8% | efficacy versus untreated control groups, in words ([1]; reduction of lung lesions and treatment failure): statistical superiority | IL-Iβ OS of LPS (IL-1β): > 500 µM | Kd (LCN2; pH 5.5, SPR): 0.435 mM | Kd (LCN2; pH 6.5, SPR): 4.21 mM | Interaction (TLR4): Indirect | maximum plasma concentration [2]: 5 µg/mL | lung lesions ([3]; saline control 31%, p=0.023): 20% | Mortality ([3]; saline control 38.9%, p=0.025): 13% | Interaction (NLRX1): Indirect | Mortality ([4]; T02: 10 mg/kg subcutaneous Day −1, M. haemolytica challenge Day 0, saline 4/6): 1/6 | IL-6 levels, in words ([4]; bovine M. haemolytica challenge, blood biomarker): significantly reduced | CD163 expression, in words ([4]; cattle, monocytes/macrophages in whole blood, flow cytometry): suppressed; also recorded: mitigates the pathologic increase | Kd (SLAMF9; pH 5.5, SPR): 6.33 mM | Kd (SLAMF9; pH 6.5, SPR): 2.15 mM | Survival at Day 7 (P. multocida): ~50%
